Here are results for 16 compounds from patent publication US20240190880A1 (THE REGENTS OF THE UNIVERSITY OF MICHIGAN, priority 2021, published 2024).

The structures appear in SMILES notation.

The target in the first assay is T1, ER (Homo sapiens, UniProt P03372).
T1 construct: host or cells: T47D and MCF7 human breast cancer cells
T1 sequence (P03372 1-595): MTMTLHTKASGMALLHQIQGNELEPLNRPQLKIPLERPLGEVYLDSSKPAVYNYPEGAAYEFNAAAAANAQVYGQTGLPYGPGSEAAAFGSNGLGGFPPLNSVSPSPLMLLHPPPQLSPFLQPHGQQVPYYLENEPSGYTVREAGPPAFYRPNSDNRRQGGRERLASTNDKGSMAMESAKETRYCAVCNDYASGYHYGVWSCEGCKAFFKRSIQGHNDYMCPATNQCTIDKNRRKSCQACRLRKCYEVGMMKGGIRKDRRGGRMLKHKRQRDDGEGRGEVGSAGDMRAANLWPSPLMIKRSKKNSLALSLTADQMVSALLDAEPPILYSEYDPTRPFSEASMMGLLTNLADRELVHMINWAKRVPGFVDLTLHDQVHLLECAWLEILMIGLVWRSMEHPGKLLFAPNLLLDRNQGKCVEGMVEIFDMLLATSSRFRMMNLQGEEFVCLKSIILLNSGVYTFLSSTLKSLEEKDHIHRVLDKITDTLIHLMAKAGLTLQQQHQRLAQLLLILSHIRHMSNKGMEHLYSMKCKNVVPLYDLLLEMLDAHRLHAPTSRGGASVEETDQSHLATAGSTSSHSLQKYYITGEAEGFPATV
The experiment in a line: ER degradation activity, in-cell western blot analysis in T47D cells. Type of assay: cell-based. The following applies: 16 hours, Table A does not say which cell line (T47D or MCF7), read-out: Potency (DC50). In a few lines: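 T47D cells cultured in DMEM with 10% FBS, treated with compounds (final 0.5% DMSO) for 16 h. ER level measured by in-cell western with anti-rabbit-680/anti-mouse-800 near-infrared detection. Relative ER percentage calculated against untreated and DMSO-treated wells set as 100%.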
On to `O=C1CCC(N2C(=O)c3cc4c(cc3C2=O)CN(CC(=O)N2CCC3(CC2)CCN(c2ccc([C@H]5c6ccc(O)cc6CC[C@H]5c5ccc(F)cc5)cc2)CC3)C4)C(=O)N1` (stereo partly drawn) [E 213, 2-(2,6-dioxopiperidin-3-yl)-6-(2-(9-(4-((1S,2R)-2-(4-fluorophenyl)-6-hydroxy-1,2,3,4-tetrahydronaphthalen-1-yl)phenyl)-3,9-diazaspiro[5.5]undecan-3-yl)-2-oxoethyl)-6,7-dihydropyrrolo[3,4-f]isoindole-1,3(2H,5H)-dione], for which the DC50 (commonly the concentration at which degradation of the target reaches its halfway point) lay in the range of 10 to 100 nM.

In the case of `C[C@@H]1Cc2c([nH]c3ccccc23)[C@@H](c2ccc(C3=CCC(C(=O)N4CCC(N5Cc6cc7c(cc6C5)C(=O)N(C5CCC(=O)NC5=O)C7=O)CC4)CC3)cc2)N1CC(F)F` (stereo partly drawn) [E 316, 6-(1-(4′-((1R,3R)-2-(2,2-difluoroethyl)-3-methyl-2,3,4,9-tetrahydro-1H-pyrido[3,4-b]indol-1-yl)-2,3,4,5-tetrahydro-[1,1′-biphenyl]-4-carbonyl)piperidin-4-yl)-2-(2,6-dioxopiperidin-3-yl)-6,7-dihydropyrrolo[3,4-f]isoindole-1,3(2H,5H)-dione], the DC50 was > 100 nM.

In the case of `C[C@@H]1Cc2cc(O)ccc2[C@@H](c2c(F)cc(N3CC4(CN(C(=O)CN5Cc6cc7c(cc6C5)C(=O)N(C5CCC(=O)NC5=O)C7=O)C4)C3)cc2F)N1CC(F)F` (stereo partly drawn) [E 42, 6-(2-(6-(4-((1S,3R)-2-(2,2-difluoroethyl)-6-hydroxy-3-methyl-1,2,3,4-tetrahydroisoquinolin-1-yl)-3,5-difluorophenyl)-2,6-diazaspiro[3.3]heptan-2-yl)-2-oxoethyl)-2-(2,6-dioxopiperidin-3-yl)-6,7-dihydropyrrolo[3,4-f]isoindole-1,3(2H,5H)-dione], the DC50 was < 10 nM.

In the case of `O=C1CCC(N2C(=O)c3cc4c(cc3C2=O)CN(Cc2cnc(N3CC(Oc5ccc([C@@H]6c7ccc(O)cc7CC[C@@H]6c6ccccc6)cc5)C3)nc2)C4)C(=O)N1` (stereo partly drawn) [E330, 2-(2,6-dioxopiperidin-3-yl)-6-((2-(3-(4-((1R,2S)-6-hydroxy-2-phenyl-1,2,3,4-tetrahydronaphthalen-1-yl)phenoxy)azetidin-1-yl)pyrimidin-5-yl)methyl)-6,7-dihydropyrrolo[3,4-f]isoindole-1,3(2H,5H)-dione], the DC50 is > 100 nM.

In the case of `C[C@@H]1Cc2c([nH]c3ccccc23)[C@@H](c2cnc(N3CCC(C(=O)N4CCC(N5Cc6cc7c(cc6C5)C(=O)N(C5CCC(=O)NC5=O)C7=O)CC4)CC3)nc2)N1CC(F)(F)F` (stereo partly drawn) [E 257, 2-(2,6-dioxopiperidin-3-yl)-6-(1-(1-(5-((1R,3R)-3-methyl-2-(2,2,2-trifluoroethyl)-2,3,4,9-tetrahydro-1H-pyrido[3,4-b]indol-1-yl)pyrimidin-2-yl)piperidine-4-carbonyl)piperidin-4-yl)-6,7-dihydropyrrolo[3,4-f]isoindole-1,3(2H,5H)-dione], the DC50 was < 10 nM.

On to `O=C1CCC(N2C(=O)c3cc4c(cc3C2=O)CN(C2CCC(NCC3CN(c5ccc([C@@H]6c7ccc(O)cc7CC[C@@H]6c6ccccc6)cc5)C3)CC2)C4)C(=O)N1` (stereo partly drawn) [E 339, 2-(2,6-dioxopiperidin-3-yl)-6-(4-(((1-(4-((1R,2S)-6-hydroxy-2-phenyl-1,2,3,4-tetrahydronaphthalen-1-yl)phenyl)azetidin-3-yl)methyl)amino)cyclohexyl)-6,7-dihydropyrrolo[3,4-f]isoindole-1,3(2H,5H)-dione], for which the DC50 is > 100 nM.

With `O=C1CCC(N2C(=O)c3cc4c(cc3C2=O)CN(C2CCN(C(=O)C3CCN(c5ccc([C@@H]6c7ccc(O)cc7CC[C@@H]6c6ccccc6)cc5)CC3)CC2)C4)C(=O)N1` (mixture of isomers) [E 13, Rac-2-(2,6-dioxopiperidin-3-yl)-6-(1-(1-(4-((1R,2S)-6-hydroxy-2-phenyl-1,2,3,4-tetrahydronaphthalen-1-yl)phenyl)piperidine-4-carbonyl)pi570 peridin-4-yl)-6,7-dihydropyrrolo[3,4-f]isoindole-1,3(2H,5H)-dione], the 50% degradation concentration (DC50) is < 10 nM.

In the case of `O=C1CCC(N2C(=O)c3cc4c(cc3C2=O)CN(C2CCC(CNC3CN(c5ccc([C@@H]6c7ccc(O)cc7CC[C@@H]6c6ccccc6)cc5)C3)CC2)C4)C(=O)N1` (stereo partly drawn) [E 338, 2-(2,6-dioxopiperidin-3-yl)-6-(4-(((1-(4-((1R,2S)-6-hydroxy-2-phenyl-1,2,3,4-tetrahydronaphthalen-1-yl)phenyl)azetidin-3-yl)amino)methyl)cyclohexyl)-6,7-dihydropyrrolo[3,4-f]isoindole-1,3(2H,5H)-dione], the DC50 was > 100 nM.

Take `O=C1CCC(N2C(=O)c3cc4c(cc3C2=O)CN(C(=O)C2CCN(C3CCN(c5ccc([C@@H]6c7ccc(O)cc7CC[C@@H]6c6ccc(F)cc6)cc5)CC3)CC2)C4)C(=O)N1` (mixture of isomers) [E 12, Rac-2-(2,6-dioxopiperidin-3-yl)-6-(1′-(4-((1R,2S)-2-(4-fluorophenyl)-6-hydroxy-1,2,3,4-tetrahydronaphthalen-1-yl)phenyl)-[1,4′-bipiperidine]-4-carbonyl)-6,7-dihydropyrrolo[3,4-f]isoindole-1,3(2H,5H)-dione]: the half-maximal degradation concentration (DC50) is < 10 nM.

Turning to `C[C@@H]1Cc2c([nH]c3ccccc23)[C@@H](c2c(F)cc(N3CCC(C(=O)N4CCC(N5Cc6cc7c(cc6C5)C(=O)N(C5CCC(=O)NC5=O)C7=O)CC4)CC3)cc2F)N1CC(F)(F)F` (stereo partly drawn) [E 228, 6-(1-(1-(3,5-difluoro-4-((1R,3R)-3-methyl-2-(2,2,2-trifluoroethyl)-2,3,4,9-tetrahydro-1H-pyrido[3,4-b]indol-1-yl)phenyl)piperidine-4-carbonyl)piperidin-4-yl)-2-(2,6-dioxopiperidin-3-yl)-6,7-dihydropyrrolo[3,4-f]isoindole-1,3(2H,5H)-dione], the DC50 was in the range of 10 to 100 nM.

For `C[C@@H]1Cc2cc(O)ccc2[C@@H](c2c(F)cc(N3CCC(N4CCC(C(=O)N5Cc6cc7c(cc6C5)C(=O)N(C5CCC(=O)NC5=O)C7)CC4)CC3)cc2F)N1CC(C)(F)F` (stereo partly drawn) [E 30, 3-(6-(1′-(4-((1S,3R)-2-(2,2-difluoropropyl)-6-hydroxy-3-methyl-1,2,3,4-tetrahydroisoquinolin-1-yl)-3,5-difluorophenyl)-[1,4′-bipiperidine]-4-carbonyl)-1-oxo-3,5,6,7-tetrahydropyrrolo[3,4-f]isoindol-2(1H)-yl)piperidine-2,6-dione], the 50% degradation concentration (DC50) is > 100 nM.

Turning to `O=C1CCC(N2C(=O)c3cc4c(cc3C2=O)CN(C(=O)[C@H]2CC[C@H](CN3CC(Oc5ccc([C@@H]6c7ccc(O)cc7CC[C@@H]6c6ccccc6)cc5)C3)CC2)C4)C(=O)N1` (stereo partly drawn) [E 310, 2-(2,6-dioxopiperidin-3-yl)-6-((1R,4r)-4-((3-(4-((1R,2S)-6-hydroxy-2-phenyl-1,2,3,4-tetrahydronaphthalen-1-yl)phenoxy)azetidin-1-yl)methyl)cyclohexane-1-carbonyl)-6,7-dihydropyrrolo[3,4-f]isoindole-1,3(2H,5H)-dione], the DC50 was > 100 nM.

`O=C1CCC(N2C(=O)c3cc4c(cc3C2=O)CN(CC2CCN(CC3CN(c5ccc([C@@H]6c7ccc(O)cc7CC[C@@H]6c6ccccc6)cc5)C3)CC2)C4)C(=O)N1` (stereo partly drawn) [E244, 2-(2,6-dioxopiperidin-3-yl)-6-((1-((1-(4-((1R,2S)-6-hydroxy-2-phenyl-1,2,3,4-tetrahydronaphthalen-1-yl)phenyl)azetidin-3-yl)methyl)piperidin-4-yl)methyl)-6,7-dihydropyrrolo[3,4-f]isoindole-1,3(2H,5H)-dione]: the DC50 is 10 to 100 nM.

For `CN(CC1CN(c2ccc([C@@H]3c4ccc(O)cc4CC[C@@H]3c3ccccc3)cc2)C1)C1CCC(N2Cc3cc4c(cc3C2)C(=O)N(C2CCC(=O)NC2=O)C4=O)CC1` (stereo partly drawn) [E333, 2-(2,6-dioxopiperidin-3-yl)-6-(4-(((1-(4-((1R,2S)-6-hydroxy-2-phenyl-1,2,3,4-tetrahydronaphthalen-1-yl)phenyl)azetidin-3-yl)methyl)(methyl)amino)cyclohexyl)-6,7-dihydropyrrolo[3,4-f]isoindole-1,3(2H,5H)-dione], the DC50 was > 100 nM.

For `C[C@@H]1Cc2cc(O)ccc2[C@@H](c2c(F)cc(N3CCC4(CC3)CN(C(=O)CN3Cc5cc6c(cc5C3)C(=O)N(C3CCC(=O)NC3=O)C6=O)C4)cc2F)N1CC(F)F` (stereo partly drawn) [E 41, 6-(2-(7-(4-((1S,3R)-2-(2,2-difluoroethyl)-6-hydroxy-3-methyl-1,2,3,4-tetrahydroisoquinolin-1-yl)-3,5-difluorophenyl)-2,7-diazaspiro[3.5]nonan-2-yl)-2-oxoethyl)-2-(2,6-dioxopiperidin-3-yl)-6,7-dihydropyrrolo[3,4-f]isoindole-1,3(2H,5H)-dione], the DC50 was < 10 nM.

The same assay, now with this note: compounds 16 hours, Table A does not say whether T47D or MCF7, read-out: Potency (DC50).
In the case of `O=C1CCC(N2Cc3cc4c(cc3C2=O)CN(C[C@H]2CC[C@H](C(=O)N3CC(Oc5ccc([C@@H]6c7ccc(O)cc7CC[C@@H]6c6ccccc6)cc5)C3)CC2)C4)C(=O)N1` (mixture of isomers) [E 499, 3-(6-(((IRS,4SR)-4-(3-(4-((1R,2S)-6-hydroxy-2-phenyl-1,2,3,4-tetrahydronaphthalen-1-yl)phenoxy)azetidine-1-carbonyl)cyclohexyl)methyl)-1-oxo-3,5,6,7-tetrahydropyrrolo[3,4-f]isoindol-2(1H)-yl)piperidine-2,6-dione], the 50% degradation concentration (DC50) was 10 to 100 nM.
